For 63 compounds, Ki results are on record in patent US8183252B2, “Heterocyclic aspartyl protease inhibitors” (Schering Corporation, priority 2007, dated 2012).

In this test the target is T1, human BACE1 (sproBACE1) (Homo sapiens, UniProt P56817).
T1 construct: sBACE1, corresponding to amino acids 1-454; made in house; host or cells: Sf9 insect cells (baculovirus), secreted into the medium
Description: BACE-1 Peptide Hydrolysis Assay (HTRF). The class given is biochemical. The conditions noted are these: read-out: BACE-1 Ki. An excerpt: A HindIII/PmeI fragment from pCDNA4-sBACE1myc/His was blunt ended using Klenow and subcloned into the Stu I site of PFASTBACI(A) (Invitrogen). A sBACE1mycHis recombinant bacmid was generated by transposition in DH10Bac cells (GIBCO/BRL). Subsequently, the sBACE1mycHis bacmid construct was transfected into sf9 cells using CellFectin (Invitrogen, San Diego, Calif.) in order to generate recombinant baculovirus. […] Five milliliters of high titer plaque purified sBACEmyc/His virus was used to infect 1 L of logarithmically growing sf9 cells for 72 hours. Intact cells were pelleted by centrifugation at 3000×g for 15 minutes. The supernatant, containing secreted sBACE1, was collected and diluted 50% v/v with 100 mM HEPES, pH 8.0. The diluted medium was loaded onto a Q-sepharose column. The Q-sepharose column was washed with Buffer A (20 mM HEPES, pH 8.0, 50 mM NaCl).
Proteins, were eluted from the Q-sepharose column with Buffer B (20 mM HEPES, pH 8.0, 500 mM NaCl). The protein peaks from the Q-sepharose column were pooled and loaded onto a Ni-NTA agarose column. The Ni-NTA column was then washed with Buffer C (20 mM HEPES, pH 8.0, 500 mM NaCl). Bound proteins were then eluted with Buffer D (Buffer C+250 mM imidazole).
Reactions were initiated by addition of substrate in a 5 μl aliquot resulting in a total volume of 25 μl. After 3 hr at 30° C. reactions were terminated by addition of an equal volume of 2× stop buffer containing 50 mM Tris-HCl pH 8.0, 0.5 M KF, 0.001% Brij-35, 20 μg/ml SA-XL665 (cross-linked allophycocyanin protein coupled to streptavidin; CIS-Bio International, France) (0.5 μg/well). Plates were shaken briefly and spun at 1200×g for 10 seconds to pellet all liquid to the bottom of the plate before the incubation.
Y=Bottom+(Top-Bottom)/(1+10^((LogEC50−X)*Hill Slope)); X is the logarithm of concentration of I, Y is the percent change in ratio and Y starts at bottom and goes to top with a sigmoid shape.

T1 sequence (P56817 22-454): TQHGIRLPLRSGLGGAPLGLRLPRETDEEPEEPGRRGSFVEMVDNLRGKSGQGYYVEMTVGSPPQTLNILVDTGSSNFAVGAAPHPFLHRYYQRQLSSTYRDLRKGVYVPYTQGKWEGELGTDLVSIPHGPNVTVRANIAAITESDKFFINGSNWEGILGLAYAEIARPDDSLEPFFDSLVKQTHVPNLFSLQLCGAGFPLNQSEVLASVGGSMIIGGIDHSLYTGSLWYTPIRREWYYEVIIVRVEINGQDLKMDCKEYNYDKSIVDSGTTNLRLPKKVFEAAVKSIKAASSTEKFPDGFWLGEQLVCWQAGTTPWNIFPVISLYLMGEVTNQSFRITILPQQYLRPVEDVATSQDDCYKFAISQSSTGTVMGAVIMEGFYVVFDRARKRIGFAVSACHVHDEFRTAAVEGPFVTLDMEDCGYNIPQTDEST

The term Ki denotes a dissociation constant, usually derived from enzyme kinetics or from competition with a known ligand. Regarding `COCC1CCCN1C(=O)c1cncc(CN2C(=N)NC(c3ccccc3)(C3CC3)C2=O)c1` (stereo not drawn), the Ki is under 5 µM.
As for `CN1C(=N)N[C@](C)(c2csc(-c3ccc(F)c(C#N)c3)c2)CC1=O`, the figure is under 5 µM; as for `CN1C(=N)N[C@](C)(c2cc(-c3ccc(F)c(C#N)c3)nn2C)CC1=O`, under 5 µM; as for `CN1C(=N)N[C@@]2(CCCc3sc(-c4ccc(F)c(C#N)c4)cc32)CC1=O`, under 5 µM.
As for `CN1C(=N)NC(c2ccccc2)(c2cc(-c3cccnc3)cs2)C1=O` (stereo not drawn), the figure is under 5 µM; as for `CCCN(CCC)C(=O)CCCCN1C(=N)NC(c2ccccc2)(c2ccccc2)C1=O`, under 5 µM.
As for `N=C1NC(c2ccccc2)(c2cccc(-c3cccnc3)c2)C(=O)N1CC1CCNCC1` (stereo not drawn), the figure is under 5 µM.
Regarding `N=C1NC(c2ccccc2)(c2ccccc2)C(=O)N1CC1CCN(c2ccc3ccccc3n2)CC1`, the Ki was under 5 µM.
As for `C[C@H]1C(=O)N(C)C(=N)N[C@]1(C)c1cc(-c2cc(Cl)cc(C#N)c2)cs1`, the figure is under 5 µM.
As for `N=C1NC(c2ccccc2)(c2ccccc2)C(=O)N1Cc1ccoc1`, the figure is under 5 µM.
As for `CN1C(=N)NC(C)(c2cc(-c3cccc(C#N)c3)cs2)C(CC=Cc2ccc(F)cc2)C1=O` (stereo not drawn), the figure is under 5 µM.
In the case of `CN1C(=N)N[C@](C)(c2cc(-c3cccc(C#N)c3)cs2)[C@@H](c2csc3ccccc23)C1=O`, the inhibition constant Ki was under 5 µM.
In the case of `CC(C)Oc1cccc([C@H]2C(=O)N(C)C(=N)N[C@]2(C)c2cc(-c3cccc(C#N)c3)cs2)c1`, the inhibition constant Ki is under 5 µM.
As for `CN1C(=N)N[C@](C)(c2cc(-c3cccc(C#N)c3)c(C3=CCN(c4ccccc4)CC3)s2)CC1=O`, the figure is under 5 µM; as for `CN1C(=N)NC(C)(c2cc(-c3cccc(C#N)c3)cs2)C(CCCc2ccccc2)C1=O` (stereo not drawn), under 5 µM; as for `CN1C(=N)NC(C)(c2cc(-c3cccc(C#N)c3)cs2)C(CCCc2ccncc2)C1=O` (stereo not drawn), under 5 µM.
As for `C[C@@]1(c2cc(-c3cccc(C#N)c3)cs2)CC(=O)N(Cc2ccncc2)C(=N)N1`, the figure is under 5 µM; as for `CC1(c2cccc(-c3cccc(Cl)c3)c2)NC(=N)N(CC2CCN(C(=O)Cc3ccccc3)C2)C1=O` (stereo not drawn), under 5 µM; as for `CC(=O)N1CCC(CN2C(=N)NC(C)(c3cccc(-c4cccc(C(=O)NCc5ccco5)c4)c3)C2=O)CC1` (stereo not drawn), under 5 µM.
As for `CN1C(=N)N[C@@](c2cccc(-c3ccc(F)c(C#N)c3)c2)(C2CC2)C1=O`, the figure is under 5 µM.
As for `CN(C)C(=O)N1CCC([C@H]2C(=O)N(C)C(=N)N[C@]2(C)c2cc(-c3cccc(C#N)c3)cs2)CC1`, the Ki was under 5 µM.
As for `Cc1cccc(-c2cccc(C3(C4CC4)NC(=N)N(C)C3=O)c2)n1` (stereo not drawn), the figure is under 5 µM.
As for `Cc1csc(-c2csc(C3(C4CC4)NC(=N)N(C)C3=O)c2)c1` (stereo not drawn), the figure is under 5 µM; as for `COc1ccc(F)c(-c2cccc(C3(C)CON(C)C(=N)N3)c2)c1` (stereo not drawn), under 5 µM; as for `CN1C(=N)NC(C)(c2cccc(-c3cncc(F)c3)c2)C1=O` (stereo not drawn), under 5 µM.
As for `CCn1nccc1Nc1cccc(C2(c3ccccc3)NC(=N)N(C)C2=O)c1` (stereo not drawn), the figure is under 5 µM; as for `CN1CCC(CN2C(=N)NC(C)(c3cccc(-c4cccc(Cl)c4)c3)C2=O)C1` (stereo not drawn), under 5 µM.
Turning to `CN1C(=N)N[C@](C)(c2cc(-c3ccc(F)c(C#N)c3)cs2)[C@@H](C2CC2)C1=O`, the Ki was under 5 µM.
Turning to `Cc1ccc(-c2csc([C@]3(C)CC(=O)N(C)C(=N)N3)c2)cc1C#N`, the Ki is under 5 µM.
As for `CN1C(=N)N[C@](C)(c2cc(-c3cc(C#N)cc(C#N)c3)nn2C)CC1=O`, the figure is under 5 µM; as for `CN1C(=N)N[C@](C)(c2cnc[nH]2)[C@@H](c2cccc(C(C)(F)F)c2)C1=O`, under 5 µM.
As for `CN1C(=N)N[C@](C)(c2ccc(C#N)s2)[C@@H](c2ccc(C(C)(F)F)cc2)C1=O`, the figure is under 5 µM; as for `CCCN(CCC)C(=O)c1ncc(CN2C(=N)NC(c3ccccc3)(c3ccccc3)C2=O)[nH]1`, under 5 µM; as for `CSc1cccc(-c2cccc([C@@]3(C4CC4)NC(=N)N(C)C3=O)c2)c1`, under 5 µM.
As for `CN1C(=N)N[C@@](c2cccc(-c3cccc(CO)c3)c2)(C2CC2)C1=O`, the figure is under 5 µM; as for `CN1C(=N)N[C@](CCC2CCCCC2)(C[C@H]2CCC[C@@H](N(C)C)C2)C1=O`, under 5 µM; as for `CN1C(=N)N[C@@](c2cccc(-c3cc(Br)ccn3)c2)(C2CC2)C1=O`, under 5 µM.
Take `CN1C(=N)N[C@](C)(c2ccnc(-c3cccnc3F)c2)[C@@H](c2ccc(C3CC3)cc2)C1=O`: the inhibitory constant (Ki) was under 5 µM.
With `CN1C(=N)N[C@](CCc2ccccc2)(C[C@H]2CCC[C@@H](NC3CCCC3)C2)C1=O`, the inhibitory constant (Ki) is under 5 µM.
As for `CN1C(=N)N[C@@](CCC2CCCCC2)(C[C@H]2CCC[C@@H](Nc3cnc4cc(Cl)ccc4n3)C2)C1=O`, the figure is under 5 µM; as for `CN1C(=N)N[C@](C)(c2ccc(F)cc2F)CC1=O`, under 5 µM.
`CN1C(=N)N[C@](C)(c2ccnc(-c3cccnc3F)c2)CC1=O`: the Ki is under 5 µM.
As for `CN1C(=N)N[C@](C)(c2ccc3scc(CCC4CC4)c3c2)CC1=O`, the figure is under 5 µM.
As for `CN1C(=N)N[C@](C)(c2cccc(-c3ccc4scnc4c3)c2)CC1=O`, the figure is under 5 µM; as for `CN1C(=N)N[C@](C)(c2cc(Br)co2)CC1=O`, under 5 µM; as for `CN1C(=N)N[C@](C)(c2cc(Br)c(-c3cncc(Br)c3)s2)CC1=O`, under 5 µM.
As for `Cc1cc(F)ccc1[C@]1(C)CC(=O)N(C)C(=N)N1`, the figure is under 5 µM; as for `CN1C(=N)N[C@](C)(c2cc(-c3cccc(F)c3)c3sccc3c2)CC1=O`, under 5 µM.
As to `CN1C(=N)N[C@](C)(c2cc(-c3ccc(F)nc3)c3sccc3c2)CC1=O`, the Ki is under 5 µM.
As for `CN1C(=N)N[C@](CCC2CCCCC2)(C[C@H]2CCC[C@@H](NC(=O)c3ccnnc3)C2)C1=O`, the figure is under 5 µM; as for `CN1C(=N)NC(C)(c2cccc(-c3cc(Cl)ccc3CNC(=O)c3ccncc3)c2)C1=O` (stereo not drawn), under 5 µM; as for `CC(=O)N1CCC[C@H](CN2C(=N)NC(c3ccccc3)(c3ccccc3)C2=O)C1`, under 5 µM.
As for `N=C1NC(c2ccccc2)(c2ccccc2)C(=O)N1CC1CCN(C(=O)CN)CC1`, the figure is under 5 µM.
As for `CCCC(=O)N1CCC[C@H](CN2C(=N)NC(c3ccccc3)(c3ccccc3)C2=O)C1`, the figure is under 5 µM.
In the case of `N=C1NC(c2ccccc2)(c2ccccc2)C(=O)N1CC1CCN(C(=O)C2(c3ccccc3)CC2)CC1`, the Ki was under 5 µM.
As for `CCCn1ncc2ccc([C@]3(C)CC(=O)N(C)C(=N)N3)cc21`, the figure is under 5 µM.
As for `Cc1c(-c2cccc(OC(F)(F)F)c2)csc1[C@]1(C)CC(=O)N(C)C(=N)N1`, the figure is under 5 µM; as for `Cc1cc([C@]2(C)CC(=O)N(C)C(=N)N2)sc1-c1cccc(OC(F)(F)F)c1`, under 5 µM; as for `CN1C(=N)N[C@](C)(c2cc(-c3cncnc3)cs2)CC1=O`, under 5 µM.
For the compound `CN1C(=N)N[C@](C)(c2csc3c(-c4ccccc4)cccc23)CC1=O`, the inhibition constant Ki was under 5 µM.
As for `CN1C(=N)N[C@](C)(c2cc(-c3ccncc3)c3sccc3c2)CC1=O`, the figure is under 5 µM.
As for `COc1ccc([C@H]2C(=O)N(C)C(=N)N[C@]2(C)c2cncs2)cc1`, the figure is under 5 µM; as for `CCC[C@H]1C(=O)N(C)C(=N)N[C@]1(C)c1cccc(I)c1`, under 5 µM.
